Assays:
[1] = system: rabbit corneas after Descemetorhexis; assay: Descemetorhexis (DMR) model: standardized slit lamp photographs, ImageJ intensity of central opacity; format: in vivo; conditions: one month; for intensity of opacity in a 2.5 mm circle of central cornea (ImageJ) vs DMR vehicle or DMR oral losartan groups: P<0.05
Protocol: All procedures involving animals were approved by the Institutional Animal Care and Use Committee (IACUC) at the Cleveland Clinic Foundation (Cleveland, OH, USA) and the Animal Care and Use Review Office of the Department of the Army (Fort Detrick, MD). All animals were treated in accordance with the tenets of the ARVO Statement for the Use of Animals in Ophthalmic and Vision Research. Twenty-eight 10- to 15-week-old female New Zealand White rabbits weighing 2.5 to 3.0 kg each were included in this study—four in each group.
(§1) The rabbits had general anaesthesia with 30 mg/kg ketamine hydrochloride and 5 mg/kg xylazine by IM injection. In addition, topical proparacaine hydrochloride 1% (Alcon, Ft Worth, TX, USA) was applied to each eye prior to the surgery. One cornea selected at random in each group either had sham surgery without Descemetorhexis or an 8 mm diameter central Descemet's membrane-endothelial excision. The time point of one month after surgery was selected for the study because myofibroblasts and fibrosis in the posterior cornea was maximal at this time point in a prior time course Descemetorhexis study (Sampaio et al., 2021). Descemetorhexis was performed as described in the prior study (Sampaio et al., 2021). Briefly, a wire lid speculum was placed into one eye of each rabbit and an 8 mm diameter gentian violet circle was marked on the epithelial surface for reference. A limbal entry incision was created with a 1.6 mm blade (Bausch and Lomb, Rochester, NY, USA) and 0.3 ml Healon OVD (Abbott Medical Optics Inc. Santa Ana, CA, USA) was injected into the anterior chamber. A reversed Sinskey hook (Katena, Denville, New Jersey, USA) was placed into the anterior chamber and an 8 mm diameter disc of Descemet's membrane and endothelium was excised underlying the 8 mm area previously marked on the anterior corneal surface, without a subsequent endothelial corneal transplant. No removal of Descemet's membrane or endothelium was performed in unwounded sham surgery eyes. Remaining Healon OVD was removed with a Simcoe irrigation and aspiration cannula (Bausch & Lomb, Storz, Rochester, NY, USA) and the anterior chamber was filled with balanced salt solution (BSS). A single 10-0 nylon suture was placed at the incision site to prevent leakage from the anterior chamber. One drop of ciprofloxacin (Alcon, Ft. Worth, TX, USA) was applied to the corneas immediately after surgery and four times a day until the epithelium entry wound healed at approximately 2 days.
(§2) The oral solution was prepared with 5 ml distilled water+50 ml ora-plus (suspending vehicle—Perrigo, Dublin, Ireland)+45 ml Ora-sweet (flavored syrup vehicle—Perrigo).
After one month of treatment, study eyes were dilated with two drops of 1% tropicamide (Akom Co., Lake Forest, IL) for thirty minutes. After general anaesthesia, the study eye in each rabbit had standardized slit lamp photographs at 20× magnification with a Haag Streit (Mason, OH, USA) BX900 slit lamp photography system using identical lighting position and intensity. For each study eye, the intensity of a 2.5 mm diameter central circle (not including the light reflex, examples shown in FIG. 1) was determined using ImageJ 1.53a analysis software. Statistical comparisons of the intensity of opacity was performed using the Kruskal-Wallis test followed by post-hoc Dunn's-Bonferroni test and p<0.05 was considered statistically significant

[2] = system: α-smooth muscle actin (SMA) myofibroblast marker; assay: DMR model: IHC for SMA and keratocan, area of SMA-positive posterior fibrosis (QuPath); format: in vivo, rabbit
Protocol: as §1, §2
At one month after surgery and treatment, an intravenous injection of 100 mg/kg Beuthanasia (Shering-Plough, Kenilworth, NJ) was given for euthanasia with the animals under general anaesthesia. Sharp Westcott scissors (Fairfield, CT, USA) and 0.12 forceps (Storz, St. Louis, MO) were used to remove the corneo-scleral rims of the sham unwounded and DMR eyes without touching the cornea. Each cornea was set in the center of a 24×24×5 mm mold (Fisher Scientific, Pittsburgh, PA, USA) and the mold was filled in liquid OCT compound (Sakura Finetek, Torrance, CA, USA). The molds and cornea-scleral rims were quick frozen on dry ice and stored at −80° C. until sections were cut.
Each OCT block was bisected in the exact center of the cornea, and 8 μm thick transverse sections were cut from the central cornea within the previous DMR injury or unwounded sham surgery corneas with a cryostat (HM 505M; Micron GmbH, Walldorf, Germany) and three sections per slide were placed on 25 mm×75 mm×1 mm Superfrost Plus microscope slides (Fisher Scientific, Pittsburgh, PA, USA). Slides were maintained at −20° C. until immunohistochemistry.
Duplex immunohistochemistry (IHC) was performed after masking of slides by a researcher not involved in the analysis using previously described methods (de Oliveira et al., 2021) using primary antibodies (Table 2) confirmed by western blotting and IHC to recognize rabbit antigens or isotypic control antibodies (ThermoFisher Scientific, Waltham, MA), and secondary fluorescent tagged antibodies (Table 3).
The area of the SMA-positive posterior fibrotic stroma was quantitated with the original groups masked to the analyzer by standardized photography with a 10× objective on a Leica DM6B upright microscope equipped with an automated stage and Leica 7000 T camera using the LAS X software (Leica Microsystems, GmbH, Wetzlar, Germany). […]

TGF beta-1 = assay: DMR model: IHC TGF beta-1 in posterior stroma; format: in vivo, rabbit; conditions: topical and/or oral losartan, one month
Protocol: as §1, with “No removal of Descemet's membrane or endothelium was performed in unwounded sham surgery eyes. Remaining Healon OVD was removed with a Simcoe irrigation and aspiration cannula (Bausch & Lomb, Storz, Rochester, NY, USA) and the anterior chamber was filled with balanced salt solution (BSS). A single 10-0 nylon suture was placed at the incision site to prevent leakage from the anterior chamber. One drop of ciprofloxacin (Alcon, Ft. Worth, TX, USA) was applied to the corneas immediately after surgery and four times a day until the epithelium entry wound healed at approximately 2 days.” left out

Question: Which “intensity of opacity in the central cornea, topical vs topical and oral losartan” value ([1]; DMR) does the source give for `CCCCc1nc(Cl)c(CO)n1Cc1ccc(-c2ccccc2-c2nn[nH]n2)cc1` [losartan] here?
Answer: no significant difference

Question: And the “scarring fibrosis and neovascularization compared to DMR vehicle control corneas” value ([1]; DMR, oral 5 mg/kg three times a day)?
Answer: no difference

Question: And the “changes in corneal opacity and neovascularization vs topical losartan alone” value ([1]; DMR, topical 0.4 mg/ml six times per day + oral 5 mg/kg three times a day)?
Answer: not different

Question: What about the “scarring fibrosis (slit lamp)” value ([1]; DMR, topical 0.4 mg/ml six times per day) of the same compound?
Answer: overall decrease

Question: What about the “intensity of opacity in a 2.5 mm circle of central cornea (ImageJ) vs DMR vehicle or DMR oral losartan groups” value ([1]; DMR, topical losartan and oral losartan) of the same compound?
Answer: significant decrease

Question: What about the “corneal neovascularization after Descemetorhexis” value ([1]; DMR, topical losartan) of the same compound?
Answer: reduced

Question: And the “intensity of opacity in a 2.5 mm circle of central cornea (ImageJ) vs DMR vehicle or DMR oral losartan groups” value ([1]; DMR, topical losartan)?
Answer: significant decrease

Question: What about the “transparency of sham unwounded corneas” value ([1]; 0.4 mg/ml topical losartan six times per day) of the same compound?
Answer: no effect

Question: What about the “transparency of sham unwounded corneas” value ([1]; oral 5 mg/kg losartan three times per day) of the same compound?
Answer: no effect

Question: What about the “mean area of the SMA-positive posterior fibrotic area among DMR groups” value ([2]; DMR, oral losartan alone, one month) of the same compound?
Answer: highest

Question: And the “mean SMA-positive posterior fibrotic area compared to the other DMR groups” value ([2]; DMR, topical 0.4 mg/ml six times a day)?
Answer: significantly lower

Question: And the “SMA-positive fibrotic zone in the posterior cornea” value ([2]; DMR, topical 0.4 mg/ml six times per day, one month)?
Answer: marked decrease

Question: What about the “SMA-positive fibrosis in the posterior cornea” value ([2]; DMR, topical six times per day and oral three times per day, one month) of the same compound?
Answer: decrease

Question: And the “SMA-positive posterior corneal fibrosis in uninjured corneas” value ([2]; oral losartan three times a day)?
Answer: did not develop SMA-positive posterior corneal fibrosis

Question: What about the “SMA-positive posterior corneal fibrosis in uninjured corneas” value ([2]; topical losartan six times a day) of the same compound?
Answer: did not develop SMA-positive posterior corneal fibrosis

Question: What about the “levels of TGF beta-1 in the posterior stroma or at the posterior stromal surface compared to vehicle-treated corneas” value (TGF beta-1) of the same compound?
Answer: No effect

Source: US20240350402A1, “TOPICAL DRUG TREATMENT TO PREVENT OR REDUCE CORNEAL SCARRING” (The Cleveland Clinic Foundation, priority 2021, published 2024)
